# Data taken from patent US12447172B2, “Use of the miR-27a-5p microRNA for treating Clostridium difficile-induced bowel inflammation” (priority 2018, dated 2025).
# Key:
# [1] = system: miR-27a-5p expression in Caco-2 cells; assay: miR-27a-5p expression (qRT-PCR) in Caco-2 cells pretreated with NF-κB and MAPK pathway inhibitors, then incubated with FliC or C. difficile R20291; conditions: 20 μM added 1 h before FliC or strain R20291
# IκB-α (NF-κB pathway) = assay: IκB-α Western blot of cecal lysates (NF-κB pathway activation); type: in vivo, C57BL/6 mice; conditions: infected, mimic-treated mice, D2 post-infection
# [2] = system: C. difficile wild-type strain R20291 infection
# [3] = system: C. difficile wild-type strain R20291 infection; assay: Clinical manifestations in the mouse model of CDI
# C. difficile = assay: Bacterial count in cecal contents at D2 post-infection
# [4] = mice infected with WT R20291, mimic 3 x 50 μg IV, D1 post-infection
# [5] = mice infected with WT R20291, mimic 3 x 50 μg IV, D2 post-infection
# [6] = uninfected mice (negative control) treated with mimic, D1
# [7] = uninfected mice (negative control) treated with mimic, D2
compound,measurement,setting,value
Cc1ccc2nc(NCCN)c3ncc(C)n3c2c1 [BMS 345541],inhibition of miR-27a-5p expression,[1],roughly 40 fold
"miR-27a-mimic: Synthetic double-stranded RNA mimic by Riboxx (SEQ ID NO: 2/3, M-00303-0200 CONmiR Mimic in vivo), given IV mixed with in vivo-jetPEI (chain 1 AGGGCUUAGCUGCUUGUGACCCCC; chain 2 GGGGGUCACAAGCAGCUAAGCCCU; formulated with in vivo-jetPEI, further chemistry not given here)",IκB-α in the cecum (NF-κB pathway activation),IκB-α (NF-κB pathway),no activation of IκB-α was detected
same,"mice with a cecum with little or no evidence of inflammation and normal, mucus-free cecal contents","[2]; infected, mimic-treated group, D2 post-infection",6 of 10
same,inflammatory appearance of the cecum,"[2]; infected, mimic-treated mice, D2 post-infection, macroscopic",largely attenuated
same,inflammation score of the 3 treated mice that showed diarrhea at D2,"[2]; infected, mimic-treated, D2 post-infection",high inflammation score comparable to infected and untreated mice
same,efficacy rate,"[2]; mouse model of infection, 3 of 10 treated mice affected",70%
same,histological inflammation score (Table 3),"[2]; mouse, in vivo",0
same,histologic score of inflammation (Table 3),"[2]; the infected, mimic-treated mice with little or no inflammation, D2, untreated infected mice 6 to 9",less than 6
same,Bristly hair D1 (animals affected/group),[3]; [4],0/10
same,Reduced activity D1 (animals affected/group),[3]; [4],0/10
same,Bristly hair D2 (animals affected/group),[3]; [5],0/10
same,Reduced activity D2 (animals affected/group),[3]; [5],1/10
same,Diarrhea D1 (animals affected/group),"[3]; mice infected with WT R20291, mimic/in vivo-jetPEI 3 x 50 μg IV, D1 post-infection",0/10
same,Diarrhea D2 (animals affected/group),"[3]; mice infected with WT R20291, mimic/in vivo-jetPEI 3 x 50 μg IV, D2 post-infection",3/10
same,Diarrhea D2 (animals affected/group),"[3]; mice infected with WT R20291, mimic/in vivo-jetPEI 3 x 50 μg IV, D2 post-infection, listed as miR27-a-mimic",3 out of 10
same,clinical and pathological manifestations caused by the bacteria,"[3]; mouse model of CDI, mimic administered intravenously",significantly reduces
same,Diarrhea D1 (animals affected/group),"[3]; uninfected mice (negative control) treated with mimic 3 x 50 μg IV, D1",0/9
same,Diarrhea D2 (animals affected/group),"[3]; uninfected mice (negative control) treated with mimic 3 x 50 μg IV, D2",0/9
same,Bristly hair D1 (animals affected/group),[3]; [6],0/9
same,Reduced activity D1 (animals affected/group),[3]; [6],0/9
same,Bristly hair D2 (animals affected/group),[3]; [7],0/9
same,Reduced activity D2 (animals affected/group),[3]; [7],0/9
same,bacterial count in the cecal contents,"C. difficile; WT-infected, mimic-treated mice",3.7 × 10^9 CFU/g
same,rate of intestinal colonization compared with untreated WT-infected mice,C. difficile; cecal contents,quite equivalent
